In ChEMBL document CHEMBL1136446, “Synthesis and antiproliferative activity of retroetoposide” (Bioorg Med Chem Lett, 2003):

Tested on: L1210
Test: Inhibitory activity against L1210 cell line
Type: functional, cell-based
Conditions: Mus musculus

| IC50 [µM] | SMILES |
| --- | --- |
| 6.74 | COc1cc([C@@H]2c3cc4c(cc3[C@@H](O[C@@H]3O[C@H]5CO[C@@H](C)O[C@H]5[C@H](O)[C@@H]3O)[C@H]3C(=O)OC[C@H]23)OCO4)cc(OC)c1O |
| 27.4 | COc1cc([C@@H]2c3cc4c(cc3[C@@H](O)C3C(=O)OCC32)OCO4)cc(OC)c1O (stereo partly drawn) |

| SMILES | IC50 [µM] |
| --- | --- |
| COc1cc([C@@H]2c3cc4c(cc3[C@@H](O[C@@H]3O[C@@H]5CO[C@@H](C)O[C@H]5[C@H](O)[C@H]3O)[C@H]3COC(=O)[C@H]23)OCO4)cc(OC)c1O [ETOPOSIDE] | 0.834 |
